These results are taken from ChEMBL document CHEMBL5131566, “Small-Molecule Thioesters as SARS-CoV-2 Main Protease Inhibitors: Enzyme Inhibition, Structure-Activity Relationships, Antiviral Activity, and X-ray Structure Determination” (J Med Chem, 2022).

Series [1] concerns Calu-3. Nature of the series: Cytotoxicity against human Calu-3 cells assessed as reduction in cell […] at 10 uM incubated for 24 hrs by cell titer glo luminescent assay. The class given is toxicity, cell-based. Particulars: calu-3, 24 h. In general terms: ATP-based viability assays read luminescence as a measure of living cells.
In series [2] the target is T1, Replicase polyprotein 1ab (Severe acute respiratory syndrome coronavirus 2, UniProt P0DTD1). The experiment in a line: Inhibition of recombinant his tagged SARS CoV-2 main protease expressed in Escherichia coli BL21 using Boc-Abu-Tle-Leu-Gln-AMC37 as fluorogenic substrate pre-incubated for 5 mins followed by substrate addition measured after 60 mins by FRET based assay.

Series [3] is described as follows: Inhibition of recombinant SARS CoV-1 main protease expressed using MCA-AVLQSGFR-K(DNP)-K-NH2 as substrate incubated for 2 hrs by FRET based assay. Also noted: species or system Severe acute respiratory syndrome-related coronavirus.
The subject of series [4] is Severe acute respiratory syndrome-related coronavirus. The experiment in a line: Inhibition of recombinant SARS CoV-1 main protease expressed using MCA-AVLQSGFR-K(DNP)-K-NH2 as substrate at 10 uM incubated for 2 hrs by FRET based assay.
A short description of series [5]: Inhibition of MERS-CoV -Mpro using Ac-Abu-Tle-Leu-Gln-ACC as substrate incubated for 2 hrs by FRET based assay. Further details: species or system Middle East respiratory syndrome-related coronavirus.
Series [6] concerns Vero 76. The experiment in a line: Cytotoxicity against African green monkey Vero 76 cells assessed as reduction in cell […] at 10 uM incubated for 24 hrs by cell titer glo luminescent assay. The class given is toxicity, cell-based. Particulars: chlorocebus sabaeus, vero 76, 24 h.
Series [7] addresses T1, Replicase polyprotein 1ab. Nature of the series: Inhibition of recombinant his tagged SARS CoV-2 main protease expressed in Escherichia coli BL21 assessed as inhibition constant using Boc-Abu-Tle-Leu-Gln-AMC37 as fluorogenic substrate pre-incubated for 5 mins followed by substrate addition measured after 60 mins by FRET based assay.
In series [8] the test system is SARS-CoV-2. The experiment in a line: microbe, parasite or virus in culture. Particulars: Severe acute respiratory syndrome coronavirus 2, Vero 76.
Series [9] relates to SARS-CoV-2. The experiment in a line: microbe, parasite or virus in culture. The conditions noted are these: Severe acute respiratory syndrome coronavirus 2, Calu-3.
Series [10] deals with Replicase polyprotein 1ab (Severe acute respiratory syndrome coronavirus 2) (UniProt P0DTD1). The experiment in a line: Time dependent inhibition of recombinant his tagged SARS CoV-2 main protease expressed in Escherichia coli BL21 assessed as ratio of Kinact/Ki using MCA-AVLQSGFR-K(DNP)-K-NH2 as substrate pre-incubated for 5 mins followed by substrate addition measured after 60 mins by FRET based assay.

Series [11] is described as follows: Stability of the compound assessed as glutathione reactivity by measuring reduction at pH 7.4 by HPLC/MS method. The class given is physicochemical. The conditions noted are these: buffer.
Series [12] deals with T1, Replicase polyprotein 1ab. Nature of the series: Inhibition of SARS CoV-2 main protease.
Series [13] addresses Replicase polyprotein 1ab (Severe acute respiratory syndrome coronavirus 2) (UniProt P0DTD1). The experiment in a line: Inhibition of recombinant his tagged SARS CoV-2 main protease expressed in Escherichia coli BL21 using Boc-Abu-Tle-Leu-Gln-AMC37 as fluorogenic substrate at 10 uM pre-incubated for 5 mins followed by substrate addition measured after 60 mins by FRET based assay relative to control.

The target in series [14] is T1, Replicase polyprotein 1ab. The experiment in a line: Inhibition of full length SARS CoV-2 main protease expressed in Escherichia coli BL21 (DE3) expression system using Mca-AVLQSGFR-K(Dnp)K as substrate by fluorescence method.

For `O=C(Sc1ncccn1)c1ccc2ccccc2n1`, the Activity entry in series [1] and in series [6] was “Non-Toxic” each time. Besides, the values for the half-maximal inhibitory concentration (IC50) in series [2], in series [3] and in series [5] were 20.6 nM, 253 nM and 613 nM, respectively. Besides, the inhibition (in general, the drop in the measured response relative to a control, in per cent) in [4] was over 50%.
In the case of `O=C(Sc1nncs1)c1cc2ccccc2[nH]1`, the Activity result in [1] and in series [6] was “Non-Toxic” throughout. Further, the values for the half-inhibitory concentration (IC50) in series [2], in series [3] and in [5] were 143 nM, 3210 nM and 535 nM, respectively. In addition, the inhibition in series [4] is over 50%. Moreover, the Ki (commonly a measure of affinity in units of concentration, obtained from inhibition or displacement) in series [7] was 74.4 nM. The 50% effective concentration (EC50) – broadly, the midpoint of the concentration-response curve – worked out at 642 nM in series [8] and 562 nM in series [9].
With `O=C(Sc1nc2ccccc2s1)c1ccc2ccccc2n1`, the IC50 (in general, the concentration that gives 50% inhibition) in [2] is 88.9 nM. Moreover, the Ratio in series [10] was 5450 M⁻¹ s⁻¹. In addition, the Stability entry in series [11] is recorded as “Stable”. For the same compound, the Ki in series [7] was 51 nM.
For `S=C(SSC(=S)N1CCOCC1)N1CCOCC1`, the half-inhibitory concentration (IC50) in [12] was 4030 nM.
Regarding `CCOc1ccc2cc(C(=O)Sc3nccc(C)n3)[nH]c2c1`, in series [13], the inhibition is -8%.
With `O=C(NCCN1C(=O)C=CC1=O)c1cc2ccccc2[nH]1`, in series [14], it took 2080 nM to reach half-maximal inhibition (IC50).
Consider `O=C(Sc1ccc(Cl)cc1Cl)c1cc2ccccc2[nH]1`, for which the inhibition in [13] is 9%.
For `Cc1nnc(SC(=O)c2cc3ccccc3n2C)s1`, the Activity entry in series [1] and in series [6] was “Non-Toxic” throughout. In addition, the concentration for half-maximal inhibition (IC50) is 349 nM in series [2] and 223 nM in [5]. The Ki in series [7] came to 295 nM. For the same compound, the half-maximal effective concentration (EC50) came out at 4.58 nM in series [8] and 659 nM in series [9].
`O=C(Sc1nnc(C(F)(F)F)s1)c1cc2ccccc2[nH]1`: the inhibition in series [13] was 26%.
On to `O=C(Sc1ncccn1)c1cc2ccccc2[nH]1`, for which the Activity entry in series [1] and in series [6] was “Non-Toxic” throughout. For the same compound, the values for the IC50 in [2], in series [3] and in series [5] were 11.4 nM, 60 nM and 303 nM, respectively. In series [4], the inhibition is over 50%. The Ki in [7] came to 14.1 nM. This compound also displayed a half-maximal effective concentration (EC50) in series [9] of 111 nM.
Take `O=C(Sc1ccc(Cl)cc1)c1cc2ccccc2[nH]1`: the inhibition in [13] is 4%.
On to `O=C(Sc1nc2ccccc2s1)c1cc2ccccc2o1`, for which, in series [13], the inhibition was found to be 14%.
`Cc1nnc(SC(=O)c2ccc3[nH]ccc3c2)s1`: the Activity result in series [1] and in [6] was “Non-Toxic” in each case. The IC50 came out at 72.3 nM in series [2], 7350 nM in [3] and 945 nM in [5]. The Ratio in [10] was 3370 M⁻¹ s⁻¹. In addition, the inhibition constant Ki in series [7] was 393 nM.
`Cc1nnc(SC(=O)c2ccc3ccccc3c2)s1`: the Activity entry in series [1] and in series [6] was “Non-Toxic” each time. Further, the 50% inhibitory concentration (IC50) came to 454 nM in series [2], 1650 nM in [3] and 526 nM in series [5]. Also, the inhibition in series [4] is over 50%. In addition, in series [7], the Ki stood at 21.1 nM. Moreover, the EC50 in series [9] was found to be 45 nM.
For the compound `Oc1ccc2ccccc2c1SSc1c(O)ccc2ccccc12`, half-maximal inhibition in series [14] (IC50) was put at 2350 nM.
Regarding `CCOc1nnc(SC(=O)c2cc3ccccc3[nH]2)s1`, in series [13], the inhibition was 37%.
Regarding `COc1nnc(SC(=O)c2cc3ccccc3[nH]2)s1`, the Activity entry in series [1] and in series [6] was “Non-Toxic” in each case. In addition, the values for the IC50 in series [2] and in series [5] were 147 nM and 503 nM, respectively. Moreover, in [7], the Ki is 84.4 nM. In series [9], the concentration for a half-maximal effect (EC50) stood at 38.3 nM.
For the compound `CCC(CC)COC(=O)[C@H](C)N[P@](=O)(OC[C@H]1O[C@@](C#N)(c2ccc3c(N)ncnn23)[C@H](O)[C@@H]1O)Oc1ccccc1`, the Activity entry in series [1] and in series [6] was “Non-Toxic” throughout. For the same compound, the EC50 in series [8] was found to be 2.63 nM; in series [9] it was 79.6 nM.
`Cc1ccnc(SC(=O)c2cc3ccccc3[nH]2)n1`: the Activity result in [1] and in series [6] was “Non-Toxic” in each case. Besides, the IC50 turned out to be 87.6 nM in series [2], 1520 nM in series [3] and 1310 nM in [5]. Besides, the inhibition in series [4] was over 50%. Also, in series [7], the Ki was found to be 33.2 nM. The half-maximal effective concentration (EC50) in [8] was 185 nM; in [9], 734 nM.
With `O=C(Sc1nnc(C(F)(F)F)s1)c1ccc(C#Cc2ccccc2)o1`, in series [13], the inhibition turned out to be 14%.
Consider `CC(C)C[C@H](NC(=O)OCc1ccccc1)C(=O)N[C@H](C=O)CC1CCNC1=O` (stereo not given in full), for which the results for the IC50 in series [3] and in series [5] were 44.6 nM and 78 nM, respectively.
With `O=C(Oc1cncc(Cl)c1)c1cccc2[nH]ccc12`, the Activity result in series [1] and in series [6] was “Non-Toxic” throughout. Further, the EC50 was determined as 9.59 nM in [8] and 28.5 nM in series [9].
Consider `Cc1nnc(SC(=O)c2cccc3cc[nH]c23)s1`, for which the Activity result in series [1] and in series [6] was “Non-Toxic” each time. Besides, the results for the concentration for half-maximal inhibition (IC50) in series [2], in series [3] and in series [5] were 159 nM, 2150 nM and 196 nM, respectively. Moreover, the inhibition in series [4] was over 50%. Also, in series [7], the Ki was determined as 250 nM. The concentration for a half-maximal effect (EC50) in series [9] was 437 nM.
With `Cc1nnc(SC(=O)c2ccc(C#Cc3ccccc3)o2)s1`, the Activity entry in series [1] and in series [6] was “Non-Toxic” each time. Moreover, the figures for the half-inhibitory concentration (IC50) in [2], in series [3] and in [5] were 250 nM, 2760 nM and 378 nM, respectively. In addition, in [10], the Ratio stood at 5200 M⁻¹ s⁻¹. Also, the inhibition in series [4] was over 50%. Moreover, the inhibition constant Ki in [7] was 34.4 nM.
